Reference: patent publication US20100105680A1, “SUBSTITUTED DIMETHYLCYCLOBUTYL COMPOUNDS, THEIR PREPARATION AND USE IN MEDICAMENTS” (priority 2006, published 2010)

Molecular target: T1, sigma-1 receptor (Cavia porcellus, UniProt Q60492)
T1 construct: guinea pig brains were homogenized; from tissue; host or cells: guinea pig brain membranes
Test: Sigma-1 receptor binding ([3H]-(+)-pentazocine, brain membranes)
Settings: [3H]-(+)-pentazocine 0.5 nM, guinea pig brain membranes
Description: Brain membrane preparation and binding assays for the sigma-1 receptor were performed as described (DeHaven-Hudkins et al., Characterization of the binding of [^3H]-(+)-pentazocine to recognition sites in guinea pig brain, Eur. J. Pharmacol. 227, 371-378) with some modifications.
In brief, guinea pig brains were homogenized in 10 vols. (w/v) of Tris-HCl 50 mM, 0.32 M sucrose, pH 7.4, with a Kinematica Polytron PT 3000 at 15000 r.p.m. for 30 s. The homogenate was centrifuged at 1000 g for 10 min at 4° C. and the supernatants collected and centrifuged again at 48000 g for 15 min at 4° C. The pellet was resuspended in 10 volumes of Tris-HCl buffer (50 mM, pH 7.4), incubated at 37° C. for 30 min, and centrifuged at 48000 g for 20 min at 4° C. Following this, the pellet was resuspended in fresh Tris-HCl buffer (50 mM, pH 7.4) and stored on ice until use.
Each assay tube contained 10 μL of [^3H]-(+)-pentazocine (final concentration of 0.5 nM), 900 μL of the tissue suspension to a final assay volume of 1 mL and a final tissue concentration of approximately 30 mg tissue net weight/mL. Non-specific binding was defined by addition of a final concentration of […] haloperidol. All tubes were incubated at 37° C. for 150 min before termination of the reaction by rapid filtration over Schleicher & Schuell GF 3362 glass fibre filters [previously soaked in a solution of 0.5% polyethylenimine for at least 1 h]. Filters were then washed with four times with 4 mL of cold Tris-HCl buffer (50 mM, pH 7.4). Following addition of scintillation cocktail, the samples were allowed to equilibrate overnight. The amount of bound radioactivity was determined by liquid scintillation spectrometry using a Wallac Winspectral 1414 liquid scintillation counter. Protein concentrations were determined by the method of Lowry et al. (Protein measurement with the Folin phenol reagent, J. Biol. Chem, 193, 265).
The binding of the compounds of the present invention to sigma-1 receptors was tested as described above.

T1 sequence (Q60492 whole entry): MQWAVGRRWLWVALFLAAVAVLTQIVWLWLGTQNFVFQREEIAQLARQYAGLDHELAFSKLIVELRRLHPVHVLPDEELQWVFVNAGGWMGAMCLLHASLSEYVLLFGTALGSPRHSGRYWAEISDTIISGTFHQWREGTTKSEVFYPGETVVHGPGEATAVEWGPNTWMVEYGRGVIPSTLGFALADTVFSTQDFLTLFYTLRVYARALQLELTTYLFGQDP

Ki: 0.0117 µM
inhibition at 0.01 µM (compound concentration 0.0100 μM, read-out: Percent Inhibition Percent Concentration (μM) 0.0100 SIGMA-1 receptor): 42.2%
inhibition at 0.1 µM (compound concentration 0.1000 μM, read-out: Percent Inhibition Percent Concentration (μM) 0.1000 SIGMA-1 receptor): 87.1%
Compound: CC1(C)[C@@H](CCN2CCc3ccccc3C2)C[C@H]1CN1CCCCC1 [compound 54]
